# Measured values reported in PubChem BioAssay (NCI).
#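 Assay format: 96-well plates, 48-hour exposure. Abbreviation: GI50, concentration required for 50% inhibition of growth. TGI: total growth inhibition.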
# Key:
# Assay in all cases: inhibition of tumour cell growth, NCI panel, 48 h
# OVCAR-5 ovarian = test system: OVCAR-5 ovarian
# CCRF-CEM leukemia = test system: CCRF-CEM leukemia
# NCI/ADR-RES ovarian = test system: NCI/ADR-RES ovarian
# UO-31 renal = test system: UO-31 renal
# OVCAR-4 ovarian = test system: OVCAR-4 ovarian
# OVCAR-3 ovarian = test system: OVCAR-3 ovarian
# OVCAR-8 ovarian = test system: OVCAR-8 ovarian
# MOLT-4 leukemia = test system: MOLT-4 leukemia
# SK-MEL-5 melanoma = test system: SK-MEL-5 melanoma
# 786-0 renal = test system: 786-0 renal
# SK-MEL-2 melanoma = test system: SK-MEL-2 melanoma
# TK-10 renal = test system: TK-10 renal
# KM12 colon = test system: KM12 colon
# UACC-257 melanoma = test system: UACC-257 melanoma
# COLO 205 colon = test system: COLO 205 colon
# MDA-MB-435 = test system: MDA-MB-435
# HS 578T breast = test system: HS 578T breast
# MCF7 breast = test system: MCF7 breast
# SNB-75 CNS = test system: SNB-75 CNS
# LOX IMVI melanoma = test system: LOX IMVI melanoma
# HOP-62 NSCLC = test system: HOP-62 NSCLC
# A498 renal = test system: A498 renal
# SW-620 colon = test system: SW-620 colon
# RXF 393 renal = test system: RXF 393 renal
# HOP-92 NSCLC = test system: HOP-92 NSCLC
# HCT-116 colon = test system: HCT-116 colon
# SF-295 CNS = test system: SF-295 CNS
# RPMI-8226 leukemia = test system: RPMI-8226 leukemia
# HCT-15 colon = test system: HCT-15 colon
# SK-OV-3 ovarian = test system: SK-OV-3 ovarian
# BT-549 breast = test system: BT-549 breast
# CAKI-1 renal = test system: CAKI-1 renal
# T-47D breast = test system: T-47D breast
# U251 CNS = test system: U251 CNS
# UACC-62 melanoma = test system: UACC-62 melanoma
# HT29 colon = test system: HT29 colon
# K-562 leukemia = test system: K-562 leukemia
# SR leukemia = test system: SR leukemia
# SK-MEL-28 melanoma = test system: SK-MEL-28 melanoma
# SN12C renal = test system: SN12C renal
# DU-145 prostate = test system: DU-145 prostate
# NCI-H522 lung = test system: NCI-H522 lung
# SF-268 CNS = test system: SF-268 CNS
# NCI-H226 lung = test system: NCI-H226 lung
# HL-60(TB) leukemia = test system: HL-60(TB) leukemia
# M14 melanoma = test system: M14 melanoma
# SNB-19 CNS = test system: SNB-19 CNS
# NCI-H460 lung = test system: NCI-H460 lung
# IGROV1 ovarian = test system: IGROV1 ovarian
# SF-539 CNS = test system: SF-539 CNS
# MDA-MB-231 breast = test system: MDA-MB-231 breast
# PC-3 prostate = test system: PC-3 prostate
# MALME-3M melanoma = test system: MALME-3M melanoma
# EKVX NSCLC = test system: EKVX NSCLC
# NCI-H23 lung = test system: NCI-H23 lung
# ACHN renal = test system: ACHN renal
# HCC-2998 colon = test system: HCC-2998 colon
# A549 NSCLC = test system: A549 NSCLC
structure (smiles),measurement,setting,value
CNCc1ccc(-c2[nH]c3cc(F)cc4c3c2CCNC4=O)cc1,GI50,OVCAR-5 ovarian,19.1 µM
same,TGI,OVCAR-5 ovarian,55.5 µM
same,GI50,CCRF-CEM leukemia,25.6 µM
same,TGI,CCRF-CEM leukemia,> 93 µM
same,GI50,NCI/ADR-RES ovarian,69.2 µM
same,TGI,NCI/ADR-RES ovarian,> 100 µM
same,GI50,UO-31 renal,22.2 µM
same,TGI,UO-31 renal,76.2 µM
same,GI50,OVCAR-4 ovarian,13.5 µM
same,TGI,OVCAR-4 ovarian,47.8 µM
same,GI50,OVCAR-3 ovarian,19.9 µM
same,TGI,OVCAR-3 ovarian,47.2 µM
same,GI50,OVCAR-8 ovarian,17.4 µM
same,TGI,OVCAR-8 ovarian,77.5 µM
same,GI50,MOLT-4 leukemia,21.9 µM
same,TGI,MOLT-4 leukemia,68 µM
same,GI50,SK-MEL-5 melanoma,14.7 µM
same,TGI,SK-MEL-5 melanoma,28.1 µM
same,GI50,786-0 renal,19 µM
same,TGI,786-0 renal,41.5 µM
same,GI50,SK-MEL-2 melanoma,20.9 µM
same,TGI,SK-MEL-2 melanoma,39.3 µM
same,GI50,TK-10 renal,29.2 µM
same,TGI,TK-10 renal,72.7 µM
same,GI50,KM12 colon,20 µM
same,TGI,KM12 colon,45.3 µM
same,GI50,UACC-257 melanoma,17 µM
same,TGI,UACC-257 melanoma,33.2 µM
same,GI50,COLO 205 colon,11.7 µM
same,TGI,COLO 205 colon,26.4 µM
same,GI50,MDA-MB-435,16.5 µM
same,TGI,MDA-MB-435,36.1 µM
same,GI50,HS 578T breast,19.5 µM
same,TGI,HS 578T breast,67.9 µM
same,GI50,MCF7 breast,8.9 µM
same,TGI,MCF7 breast,35.5 µM
same,GI50,SNB-75 CNS,9.49 µM
same,TGI,SNB-75 CNS,27.3 µM
same,GI50,LOX IMVI melanoma,12.9 µM
same,TGI,LOX IMVI melanoma,29.2 µM
same,GI50,HOP-62 NSCLC,14.9 µM
same,TGI,HOP-62 NSCLC,43.4 µM
same,GI50,A498 renal,21.6 µM
same,TGI,A498 renal,53.8 µM
same,GI50,SW-620 colon,16.1 µM
same,TGI,SW-620 colon,60.4 µM
same,GI50,RXF 393 renal,12.3 µM
same,TGI,RXF 393 renal,26.2 µM
same,GI50,HOP-92 NSCLC,17.9 µM
same,TGI,HOP-92 NSCLC,> 69.5 µM
same,GI50,HCT-116 colon,13.1 µM
same,TGI,HCT-116 colon,38.6 µM
same,GI50,SF-295 CNS,18.8 µM
same,TGI,SF-295 CNS,45.7 µM
same,GI50,RPMI-8226 leukemia,23.7 µM
same,TGI,RPMI-8226 leukemia,73.3 µM
same,GI50,HCT-15 colon,35.8 µM
same,TGI,HCT-15 colon,> 100 µM
same,GI50,SK-OV-3 ovarian,18.6 µM
same,TGI,SK-OV-3 ovarian,56 µM
same,GI50,BT-549 breast,17.4 µM
same,TGI,BT-549 breast,36.4 µM
same,GI50,CAKI-1 renal,16.7 µM
same,TGI,CAKI-1 renal,60 µM
same,GI50,T-47D breast,16.8 µM
same,TGI,T-47D breast,55 µM
same,GI50,U251 CNS,16 µM
same,TGI,U251 CNS,57.7 µM
same,GI50,UACC-62 melanoma,15 µM
same,TGI,UACC-62 melanoma,29.8 µM
same,GI50,HT29 colon,19.5 µM
same,TGI,HT29 colon,76.3 µM
same,GI50,K-562 leukemia,18 µM
same,TGI,K-562 leukemia,43.9 µM
same,GI50,SR leukemia,9.51 µM
same,TGI,SR leukemia,44 µM
same,GI50,SK-MEL-28 melanoma,15.6 µM
same,TGI,SK-MEL-28 melanoma,32 µM
same,GI50,SN12C renal,16.5 µM
same,TGI,SN12C renal,48 µM
same,GI50,DU-145 prostate,16 µM
same,TGI,DU-145 prostate,32.3 µM
same,GI50,NCI-H522 lung,19 µM
same,TGI,NCI-H522 lung,39.4 µM
same,GI50,SF-268 CNS,22.8 µM
same,TGI,SF-268 CNS,66 µM
same,GI50,NCI-H226 lung,15.6 µM
same,TGI,NCI-H226 lung,43.4 µM
same,GI50,HL-60(TB) leukemia,20.9 µM
same,TGI,HL-60(TB) leukemia,41.3 µM
same,GI50,M14 melanoma,16.6 µM
same,TGI,M14 melanoma,32.7 µM
same,GI50,SNB-19 CNS,17.3 µM
same,TGI,SNB-19 CNS,57 µM
same,GI50,NCI-H460 lung,14.9 µM
same,TGI,NCI-H460 lung,42.3 µM
same,GI50,IGROV1 ovarian,20.8 µM
same,TGI,IGROV1 ovarian,> 72.2 µM
same,GI50,SF-539 CNS,15 µM
same,TGI,SF-539 CNS,30.6 µM
same,GI50,MDA-MB-231 breast,11.1 µM
same,TGI,MDA-MB-231 breast,33 µM
same,GI50,PC-3 prostate,23.6 µM
same,TGI,PC-3 prostate,> 100 µM
same,GI50,MALME-3M melanoma,17 µM
same,TGI,MALME-3M melanoma,36.1 µM
same,GI50,EKVX NSCLC,26.1 µM
same,TGI,EKVX NSCLC,> 83.1 µM
same,GI50,NCI-H23 lung,20.8 µM
same,TGI,NCI-H23 lung,> 56.7 µM
same,GI50,ACHN renal,18.7 µM
same,TGI,ACHN renal,> 58.2 µM
same,GI50,HCC-2998 colon,16.5 µM
same,TGI,HCC-2998 colon,35.6 µM
same,GI50,A549 NSCLC,19.4 µM
same,TGI,A549 NSCLC,> 71.2 µM
